Reference: ChEMBL document CHEMBL2380208, “Novel quinoline derivatives as inhibitors of bacterial DNA gyrase and topoisomerase IV” (Bioorg Med Chem Lett, 2013)
In brackets after ≈: the same amount, converted by molar mass.

Assays:
[1] = Inhibition of Staphylococcus aureus DNA topoisomerase 4
Staphylococcus aureus [2] = test: Antibacterial activity against Staphylococcus aureus 1146; assay type: functional
DNA gyrase = DNA gyrase (Staphylococcus aureus, UniProt P0A0K8+P20831); test: Inhibition of Staphylococcus aureus DNA gyrase; assay type: protein-complex assay
Staphylococcus aureus [3] = test: Antibacterial activity against fluoroquinolone-resistant Staphylococcus aureus 1095; assay type: functional
Staphylococcus aureus [4] = test: Antibacterial activity against fluoroquinolone-resistant Staphylococcus aureus harboring DNA gyrase M121K mutant; assay type: functional
Staphylococcus aureus [5] = test: Antibacterial activity against fluoroquinolone-resistant Staphylococcus aureus harboring DNA gyrase D83N mutant; assay type: functional

Compound | IC50 [1] [µM] | MIC (Staphylococcus aureus [2]) [µg/mL] | IC50 (DNA gyrase) [µM] | MIC (Staphylococcus aureus [3]) [µg/mL] | MIC (Staphylococcus aureus [4]) [µg/mL] | MIC (Staphylococcus aureus [5]) [µg/mL]
COc1ccc2nccc([C@@H](O)CC[C@@H]3CCN(C4CC(c5ccncn5)C4)C[C@@H]3C(=O)O)c2c1 (stereo partly specified) | 120 | 64 (≈ 134 µM) | 19 | > 64 |  | 
COc1ccc2nccc([C@@H](O)CC[C@@H]3CCN(C4CC(c5cc(F)ccc5C(F)(F)F)C4)C[C@@H]3C(=O)O)c2c1 (stereo partly specified) | 60 | 0.25 (≈ 0.446 µM) | 9.4 | 0.5 (≈ 0.892 µM) | 32 (≈ 57.1 µM) | 16 (≈ 28.5 µM)
COc1ccc2nccc([C@@H](O)CC[C@@H]3CCN(C4CC(c5ccno5)C4)C[C@@H]3C(=O)O)c2c1 (stereo partly specified) | 60 | 2 (≈ 4.3 µM) | 3.13 | 8 (≈ 17.2 µM) |  | 
COc1ccc2nccc([C@@H](O)CC[C@@H]3CCN(C4CC(c5ccnc(C)n5)C4)C[C@@H]3C(=O)O)c2c1 (stereo partly specified) | > 120 | > 64 | 50 | > 64 |  | 
COc1ccc2nccc([C@@H](O)CC[C@@H]3CCN(C4CC(c5ccn(C)n5)C4)C[C@@H]3C(=O)O)c2c1 (stereo partly specified) | > 120 | > 64 | 19 | > 64 |  | 
COc1ccc2nccc([C@@H](O)CC[C@@H]3CCN(C4CC(c5ccn[nH]5)C4)C[C@@H]3C(=O)O)c2c1 (stereo partly specified) | > 120 | > 64 | > 25 | > 64 |  | 
COc1ccc2nccc([C@@H](O)CC[C@@H]3CCN(C4CC(c5ccc(-c6ccccc6)cc5)C4)C[C@@H]3C(=O)O)c2c1 (stereo partly specified) | 120 | > 64 | > 50 | > 64 |  | 
COc1ccc2nccc([C@@H](O)CC[C@@H]3CCN(C4CC(c5cccc(F)c5C)C4)C[C@@H]3C(=O)O)c2c1 (stereo partly specified) | > 120 |  | 25 | 0.5 (≈ 0.987 µM) | > 64 | > 64
COc1ccc(F)c(C2CC(N3CC[C@@H](CC[C@H](O)c4ccnc5ccc(OC)cc45)[C@@H](C(=O)O)C3)C2)c1 (stereo partly specified) | > 120 |  | 50 | 4 (≈ 7.65 µM) | > 64 | > 64
COc1ccc2nccc([C@@H](O)CC[C@@H]3CCN(C4CC(c5c(F)cccc5Cl)C4)C[C@@H]3C(=O)O)c2c1 (stereo partly specified) | 60 |  | 4.7 |  | 32 (≈ 60.7 µM) | 64 (≈ 121 µM)
COc1ccc2nccc([C@@H](O)CC[C@@H]3CCN(C4CC(c5cc(C(F)(F)F)ccc5F)C4)C[C@@H]3C(=O)O)c2c1 (stereo partly specified) | > 100 |  | 25 | 4 (≈ 7.14 µM) |  | 
COc1ccc2nccc([C@@H](O)CC[C@@H]3CCN(C4CC(c5c(F)ccc(Cl)c5F)C4)C[C@@H]3C(=O)O)c2c1 (stereo partly specified) | 25 |  | 3.13 | 0.25 (≈ 0.459 µM) | > 64 | > 64
COc1ccc2nccc([C@@H](O)CC[C@@H]3CCN(C4CC(c5ccc(Cl)cc5F)C4)C[C@@H]3C(=O)O)c2c1 (stereo partly specified) | > 100 |  | 6.25 | 1 (≈ 1.9 µM) | > 64 | > 64
COc1ccc2nccc([C@@H](O)CC[C@@H]3CCN(C4CC(c5c(F)cc(F)cc5F)C4)C[C@@H]3C(=O)O)c2c1 (stereo partly specified) | 120 |  | 6.25 | 0.5 (≈ 0.946 µM) | > 64 | > 64
COc1ccc2nccc([C@@H](O)CC[C@@H]3CCN(C4CC(c5cc(C)ccc5F)C4)C[C@@H]3C(=O)O)c2c1 (stereo partly specified) | 75 |  | 1.56 |  | > 64 | > 64
COc1ccc2nccc([C@@H](O)CC[C@@H]3CCN(C4CC(c5cccc(Cl)c5F)C4)C[C@@H]3C(=O)O)c2c1 (stereo partly specified) | 75 |  | 2.4 | ≤ 0.0625 | > 64 | > 64
COc1ccc2nccc([C@@H](O)CC[C@@H]3CCN(C4CC(c5cc(F)c(F)cc5F)C4)C[C@@H]3C(=O)O)c2c1 (stereo partly specified) | 37 | ≤ 0.0625 | 1.56 |  | 64 (≈ 121 µM) | 32 (≈ 60.5 µM)
COc1ccc2nccc([C@@H](O)CC[C@@H]3CCN(C4CC(c5cccc(C(F)(F)F)c5F)C4)C[C@@H]3C(=O)O)c2c1 (stereo partly specified) | 200 |  | 6.25 | 0.5 (≈ 0.892 µM) | > 64 | 
COc1ccc2nccc([C@@H](O)CC[C@@H]3CCN(C4CC(c5ccc(C(F)(F)F)cc5F)C4)C[C@@H]3C(=O)O)c2c1 (stereo partly specified) | > 200 |  | 6.25 | 4 (≈ 7.14 µM) |  | > 64
COc1ccc2nccc([C@@H](O)CC[C@@H]3CCN(C4CC(c5ccc(Br)cc5F)C4)C[C@@H]3C(=O)O)c2c1 (stereo partly specified) | > 200 |  | 6.25 | 8 (≈ 14 µM) | > 64 | > 64
COc1ccc2nccc([C@@H](O)CC[C@@H]3CCN(C4CC(c5cccc(OC)c5F)C4)C[C@@H]3C(=O)O)c2c1 (stereo partly specified) | > 200 |  | 19 | 64 (≈ 122 µM) |  | > 64
COc1ccc2nccc([C@@H](O)CC[C@@H]3CCN(C4CC(c5ccc(F)c(C#N)c5)C4)C[C@@H]3C(=O)O)c2c1 (stereo partly specified) | > 200 |  | 3.13 | > 64 |  | 

Compound | IC50 [1] [µM] | MIC (Staphylococcus aureus [2]) [µg/mL] | IC50 (DNA gyrase) [µM] | MIC (Staphylococcus aureus [3]) [µg/mL] | MIC (Staphylococcus aureus [4]) [µg/mL] | MIC (Staphylococcus aureus [5]) [µg/mL]
COc1ccc(C2CC(N3CC[C@@H](CC[C@H](O)c4ccnc5ccc(OC)cc45)[C@@H](C(=O)O)C3)C2)c(F)c1 (stereo partly specified) | > 240 |  | 50 | 64 (≈ 122 µM) |  | > 64
COc1ccc2nccc([C@@H](O)CC[C@@H]3CCN(C4CC(c5cccc(C#N)c5)C4)C[C@@H]3C(=O)O)c2c1 (stereo partly specified) | > 200 |  | 9.4 | 16 (≈ 32 µM) |  | 
COc1ccc2nccc([C@@H](O)CC[C@@H]3CCN(C4CC(c5ccc(C#N)cc5)C4)C[C@@H]3C(=O)O)c2c1 (stereo partly specified) | 240 | > 64 | > 50 | > 64 |  | 
COc1ccc2nccc([C@@H](O)CC[C@@H]3CCN(C4CC(c5cc(F)c(OC)cc5F)C4)C[C@@H]3C(=O)O)c2c1 (stereo partly specified) | 240 | 32 (≈ 59.2 µM) | 50 | > 64 | > 64 | > 64
COc1ccc2nccc([C@@H](O)CC[C@@H]3CCN(C4CC(c5cc(Cl)ccc5F)C4)C[C@@H]3C(=O)O)c2c1 (stereo partly specified) | 33.3 | ≤ 0.0625 | 1.56 | ≤ 0.0625 | 64 (≈ 121 µM) | 64 (≈ 121 µM)
COc1ccc2nccc([C@@H](O)CC[C@@H]3CCN(C4CC(c5ccccc5OC)C4)C[C@@H]3C(=O)O)c2c1 (stereo partly specified) | > 240 | 0.5 (≈ 0.991 µM) | 6.25 | 1 (≈ 1.98 µM) |  | 
COc1ccc2nccc([C@@H](O)CC[C@@H]3CCN(C4CC(c5cccc(F)c5F)C4)C[C@@H]3C(=O)O)c2c1 (stereo partly specified) | 30 | ≤ 0.0625 | 1.56 | < 0.0625 | 32 (≈ 62.7 µM) | 32 (≈ 62.7 µM)
COc1ccc2nccc([C@@H](O)CC[C@@H]3CCN(C4CC(c5c(F)cccc5OC)C4)C[C@@H]3C(=O)O)c2c1 (stereo partly specified) | 100 | 0.25 (≈ 0.478 µM) | 12.5 | 2 (≈ 3.83 µM) |  | 
COc1ccc2nccc([C@@H](O)CC[C@@H]3CCN(C4CC(c5c(F)cccc5C(F)(F)F)C4)C[C@@H]3C(=O)O)c2c1 (stereo partly specified) | > 100 | 0.5 (≈ 0.892 µM) | 19 | 2 (≈ 3.57 µM) |  | 
COc1ccc2nccc([C@@H](O)CC[C@@H]3CCN(C4CC(c5cc(F)ccc5OC)C4)C[C@@H]3C(=O)O)c2c1 (stereo partly specified) | 37 | 0.5 (≈ 0.957 µM) | 12.5 | 4 (≈ 7.65 µM) |  | 
COc1ccc2nccc([C@@H](O)CC[C@@H]3CCN(C4CC(c5cc(Br)ccc5F)C4)C[C@@H]3C(=O)O)c2c1 (stereo partly specified) | 50 | ≤ 0.0625 | 3.13 | 0.25 (≈ 0.437 µM) |  | 
COc1ccc2nccc([C@@H](O)CC[C@@H]3CCN(C4CC(c5ccccc5C(F)(F)F)C4)C[C@@H]3C(=O)O)c2c1 (stereo partly specified) | 60 | 0.125 (≈ 0.23 µM) | 1.56 | 0.25 (≈ 0.461 µM) |  | 
COc1ccc2nccc([C@@H](O)CC[C@@H]3CCN(C4CC(c5cc(F)ccc5C)C4)C[C@@H]3C(=O)O)c2c1 (stereo partly specified) | 45 | 0.125 (≈ 0.247 µM) | 2.3 | 0.5 (≈ 0.987 µM) |  | 
COc1ccc2nccc([C@@H](O)CC[C@@H]3CCN(C4CC(c5c(OC)ccc(F)c5F)C4)C[C@@H]3C(=O)O)c2c1 (stereo partly specified) | 45 | 0.25 (≈ 0.462 µM) | 1.56 | 2 (≈ 3.7 µM) | > 64 | 64 (≈ 118 µM)
COc1ccc2nccc([C@@H](O)CC[C@@H]3CCN(C4CC(c5c(F)ccc(F)c5OC)C4)C[C@@H]3C(=O)O)c2c1 (stereo partly specified) | 25 | ≤ 0.0625 | 3.13 | ≤ 0.0625 | > 64 | 64 (≈ 118 µM)
COc1ccc2nccc([C@@H](O)CC[C@@H]3CCN(C4CC(c5cc(F)cc(F)c5OC)C4)C[C@@H]3C(=O)O)c2c1 (stereo partly specified) | 60 | 0.5 (≈ 0.925 µM) | 6.25 | 2 (≈ 3.7 µM) | 64 (≈ 118 µM) | 32 (≈ 59.2 µM)
COc1ccc2nccc([C@@H](O)CC[C@@H]3CCN(C4CC(c5cc(C#N)ccc5F)C4)C[C@@H]3C(=O)O)c2c1 (stereo partly specified) | 120 | 2 (≈ 3.86 µM) | 9.4 | 8 (≈ 15.5 µM) |  | 64 (≈ 124 µM)
COc1ccc2nccc([C@@H](O)CC[C@@H]3CCN(C4CC(c5ccccc5SC)C4)C[C@@H]3C(=O)O)c2c1 (stereo partly specified) | 50 | 0.25 (≈ 0.48 µM) | 3.13 | 2 (≈ 3.84 µM) |  | 64 (≈ 123 µM)
COc1ccc2nccc([C@@H](O)CC[C@@H]3CCN(C4CC(c5cccc(SC)c5)C4)C[C@@H]3C(=O)O)c2c1 (stereo partly specified) | 150 | 2 (≈ 3.84 µM) | 4.7 | 8 (≈ 15.4 µM) |  | 64 (≈ 123 µM)
COc1ccc2nccc([C@@H](O)CC[C@@H]3CCN(C4CC(c5cc(SC)ccc5F)C4)C[C@@H]3C(=O)O)c2c1 (stereo partly specified) | 50 | 0.25 (≈ 0.464 µM) | 3.13 | 2 (≈ 3.71 µM) |  | 64 (≈ 119 µM)
COc1ccc2nccc([C@@H](O)CC[C@@H]3CCN(C/C=C/c4ccccc4)C[C@@H]3C(=O)O)c2c1 | > 200 | 0.5 (≈ 1.09 µM) | 4.7 | 1 (≈ 2.17 µM) | > 64 | > 64
COc1ccc2nccc([C@@H](O)CC[C@@H]3CCN(C4CC(c5ncc(C)o5)C4)C[C@@H]3C(=O)O)c2c1 (stereo partly specified) | > 100 | 2 (≈ 4.17 µM) | 6.25 | 8 (≈ 16.7 µM) |  | 
